From publication PMC9975698, “Hyperoside alleviates toxicity of β-amyloid via endoplasmic reticulum-mitochondrial calcium signal transduction cascade in APP/PS1 double transgenic Alzheimer's disease mice” (Redox Biology, 2023)
Where two headings read alike, the source gives them in different places.

Legend:
β-secretase = target: T1, β-secretase (Mus musculus, UniProt P56818); assay: BACE-1 inhibition assay (β-secretase activity in HT22 cell lysate); assay type: cell-based; conditions: HT22 cells, HYP 20–80 μM, 24 h
T1 construct: 50 μL supernatant (cell lysate) was transferred to each well in the 96-well plate; endogenous in cells; host or cells: HT22 cells
T1 sequence (P56818 46-501): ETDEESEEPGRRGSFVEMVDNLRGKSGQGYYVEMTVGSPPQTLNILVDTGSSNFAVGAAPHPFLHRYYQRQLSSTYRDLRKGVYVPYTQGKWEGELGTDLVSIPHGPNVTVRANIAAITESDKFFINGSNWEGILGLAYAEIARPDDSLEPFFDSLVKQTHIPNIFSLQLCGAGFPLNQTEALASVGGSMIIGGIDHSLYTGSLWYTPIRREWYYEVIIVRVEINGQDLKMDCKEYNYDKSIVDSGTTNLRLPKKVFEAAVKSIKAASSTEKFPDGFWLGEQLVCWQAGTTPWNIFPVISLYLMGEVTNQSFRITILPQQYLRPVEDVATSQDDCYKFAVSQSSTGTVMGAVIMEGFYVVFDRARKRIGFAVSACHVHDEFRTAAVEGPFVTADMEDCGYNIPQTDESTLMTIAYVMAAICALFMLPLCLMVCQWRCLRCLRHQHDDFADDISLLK
Experimental: The assay was performed in a 96-well flat-bottom white plate using β-Secretase Activity Fluorometric Assay Kit (Biovision, CA, USA). To begin, HT22 cells were treated with HYP (20–80 μM) for 24 h and then collected by centrifugation with ice-cold extraction buffer added for homogenization. After centrifugation, 50 μL supernatant (cell lysate) was transferred to each well in the 96-well plate. 2 μL of active β-secretase (protein concentration: 4 μg/μL) was added to the 50 μL of extraction buffer as the positive control. For negative control, 2 μL of the β-secretase inhibitor was added to the 50 μL of sample well. 2 μL of each of the tested samples were added into each sample well for inhibitory activity evaluation. Following compounds addition, 50 μL of 2X reaction buffer was added with a gentle mix and incubation for 20 min at 37 °C before adding 2 μL of the β-secretase substrate. The plate was then covered and incubated in the dark at 37 °C for 1 h. Samples were then measured in a fluorescent 96-well plate reader (Ex/Em = 345/500 nm). Background readings produced from the substrate without adding secretase were subtracted from all samples.

[1] = Pharmacokinetics in brain after IV or IN administration; assay type: in vivo; conditions: 20 mg/kg, mice; for Tmax / k el / half-life: mouse, brain; for k el: read-out: Brain Ke (converted); for half-life: read-out: Brain t1/2 (converted)
Experimental: After tail vein injection or nasal administration, blood was collected at 5, 15 and 30 min, 1, 2, 4, 8, 12, 24, 48, 72, 120 and 168 h, for immediate centrifugation at 14,000 rpm for 5 min. The serum was harvested and stored at −20 °C until further processing. Brain tissue was collected and was thoroughly rinsed in saline to eliminate blood and blotted dry with filter paper. Each tissue sample was homogenized in saline (1:5, w/v) and stored at −20 °C until analysis. 50 μL of serum or 100 μL of brain tissue was put in a 1.5 mL EP tube, followed by the addition of 20 μL of internal standard solution (10 μM ISO). The protein was precipitated with 1 mL of ethyl acetate, vortexed for 5 min and centrifuged at 20,000 g (4 °C and 10 min). The supernatant solution was nitrogen blown to dry and re-suspended with 100 μL of 50% acetonitrile for centrifugation again. The supernatant was taken for analysis by using LC-MS/MS. HYP content was quantified using UHPLC-MS/MS system, which includes Agilent 1290 Infinity UHPLC, and Agilent 6460 Triple Quadrupole, equipped with an electrospray ionization interface used to generate positive ions for the determination of HYP. The compounds were analyzed by using the Agilent Zorbax Eclipse Plus C-18 column with a particle size of […] (flow rate: 0.35 mL/min). The mobile phase was set as follows: mobile phase A (0.1% formic acid in water) and mobile phase B (0.1% formic acid in ACN): 0–3 min, 10–30% B; 3–4 min, 70% B; 4–5 min, 30–70% B; 5–6 min, 70-10% B. The column and auto-sampler temperature were maintained at 30 °C and 4 °C, respectively. Data were analyzed by using Agilent MassHunter Workstation software B.01.03. The gas temperature was set at 300 °C with a flow rate of 11 L/min. Gases were set at 30 psi for the nebulizer, capillary, at 4000 V. For the HYP, the fragment was 170. The collision energy was set at 30; The mass transitions were as follows based on multiple reaction monitoring: m/z 464.38 → 299.9. For the Isorhamnetin (ISO), the fragment was 150. The collision energy was set at 30; The mass transitions were as follows based on multiple reaction monitoring: m/z 315.4 → 300.1, The measurements of HYP were done using the standard and linear least-squares regression curve.

[2] = Survival, body weight and organ index during the in vivo experiment; parameters: species or system mice; conditions: HYP 20/40/80 mg/kg nasal, every 3 days, 8 weeks
Experimental: All animal care and experimental procedures were performed in accordance with the “Institutional Animal Care and User Committee Guidelines” of the Macau University of Science and Technology. APP/PSEN1 (APP/PS1) mice (N000175) were purchased from the Nanjing Institute of Biomedical Sciences, Nanjing University, China, weighing 25 ± 5 g. The animals were housed in a temperature-controlled room with a 12 h light/dark cycle and given ad libitum food and water. Male mice were randomly divided into the following 6 experimental groups. (a) wild-type group (n = 6), (b) APP/PS1 group (n = 6), (c) HYP (20 mg/kg group) (n = 7), (d) HYP (40 mg/kg) group (n = 8), (e) HYP (80 mg/kg) group (n = 8) and (f) memantine (MEM) (10 mg/kg) positive control group (n = 8). HYP was dissolved in the solvent containing 10% DMSO, 40% PEG300 and 5% Tween-80 in PBS, and administrated via nasal injection for every 3 days with a volume of 0.5 μL/g of body weight for 8 consecutive weeks.

APP/PS1 mice = assay: RT-PCR validation of calcium-related genes in mice; assay type: in vivo; conditions: HYP group compared to APP/PS1 group
Experimental: To investigate the molecular mechanism of HYP, initial data (36,668 raw reads) obtained from the RNA sequencing were performed. […] In GO classification, the unigenes were annotated in three major categories (Fig. 8B). […] For the biological process category, most of the unigenes were matched to immune and signaling processes. For the cellular component category, most of the unigenes were assigned to cell and cell part. For the molecular function category, binding activity accounted for the largest proportion. […] Gene set enrichment analysis (GSEA) has been extensively applied to identify underlying pathways. In Fig. 8D, GSEA analysis of calcium channels was performed in conjunction with the previous AD hypothesis. Next, the relative expression levels of the hub genes in the APP and HYP-treated mice groups were examined by RT-PCR analysis.

**Q.** With O=c1c(O[C@@H]2O[C@H](CO)[C@H](O)[C@H](O)[C@H]2O)c(-c2ccc(O)c(O)c2)oc2cc(O)cc(O)c12 [HYP, Quercetin-3-O-β-D-galactopyranoside] as the molecule, how does the β-secretase activity (β-secretase) read?
**A.** inhibited β-secretase activity

**Q.** And the “Brain Cmax” value ([1]; IN)?
**A.** 12.76 ± 1.56 ng/m

**Q.** What about the “Brain F (AUCIN/AUCIV ratio)” value ([1]; IN) of the same molecule?
**A.** 603.72%

**Q.** What about the “Brain Cmax” value ([1]; IV) of the same molecule?
**A.** 12.82 ± 0.40 ng/mL

**Q.** And the Tmax ([1]; inhaled or intranasal, IN)?
**A.** 1 h

**Q.** And the k el ([1]; inhaled or intranasal, IN)?
**A.** 5.56e-06 s⁻¹

**Q.** And the half-life ([1]; inhaled or intranasal, IN)?
**A.** 70.1 ± 5.04 h

**Q.** And the Tmax ([1]; IV)?
**A.** 2 h

**Q.** What about the k el ([1]; IV) of the same molecule?
**A.** 1.94e-05 s⁻¹

**Q.** And the half-life ([1]; IV)?
**A.** 10.5 ± 1.63 h

**Q.** And the “survival, body weight and organ index” value [2]?
**A.** all mice survived without significant changes in body weight

**Q.** And the “mRNA expression levels of calcium-related genes” value (APP/PS1 mice)?
**A.** mRNA expression levels of Cav2.3, Cav1.3, NCLX and TRPV4 were decreased
